Source: article PMC10897476, “Pyridylpiperazine efflux pump inhibitor boosts in vivo antibiotic efficacy against K. pneumoniae” (EMBO Molecular Medicine, 2023)
Values joined by “and” are separate entries in the source; they are usually repeats but may differ in a detail not shown here. Equal entries are not always repeated.

How the values were obtained:
Type in all cases: cell-based, Klebsiella pneumoniae
[1] = tested on: K. pneumoniae AcrB^V448E; experiment: MIC of antibiotics with and without EPI (REMA), AcrB V448E mutant; details: K. pneumoniae-AcrB^V448E, Table 2
How it was run: (§1)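 K. pneumoniae ATCC 43816 carrying single chromosomal acrB or ramR mutations introduced by allelic exchange, diluted to OD600 = 0.001 in CAMHB with EPI at final 100 µM. Incubated 37 °C up to 20 h; viability by resazurin fluorescence (Ex 530/Em 590 nm).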

[2] = tested on: K. pneumoniae RamR^mut (K124*stop); experiment: MIC of antibiotics with and without EPI (REMA), RamR mutant; details: K. pneumoniae-RamR^mut, Table 2
How it was run: as §1

[3] = tested on: K. pneumoniae ATCC 43816 (WT); experiment: Checkerboard assay levofloxacin x EPI, WT strain; details: for checkerboard growth readout: ATCC43816 WT, levofloxacin 0 ng/mL; for percentage resazurin turnover: individual replicates, listed as BDM91288; for Median REMA values (percentage resazurin turnover): median n=3
Protocol: (§2) MIC experiments were carried out according to the CLSI guidelines (CLSI [2023]). Overnight cultures were diluted to an OD600 = 0.001 in CAMHB followed by addition of efflux pump inhibitors (EPIs) at a final concentration of 100 µM. […] Plates were incubated at 37 °C for up to 20 h. Bacterial viability was evaluated using the resazurin microtitre assay (REMA) and measured by fluorescence using a Tecan Spaert multimode plate reader (Ex: 530 nm Em: 590 nm). MICs were defined as the concentration that prevented 90% of resazurin turnover compared to the non-treated bacteria.
(§3) Bacterial suspensions, incubation and plate readouts were carried out as described above.

[4] = tested on: K. pneumoniae AcrB^V448E; experiment: Checkerboard assay levofloxacin x EPI, AcrB V448E mutant; details: for checkerboard growth readout: ATCC43816 AcrBV448E, levofloxacin 0 ng/mL; for Median REMA values / percentage resazurin turnover: Lev 0.00 ng/mL
Protocol: as §2, §3

[5] = tested on: K. pneumoniae RamR^mut (K124*stop); experiment: Checkerboard assay levofloxacin x EPI, RamR mutant; details: for checkerboard growth readout: ATCC43816 ramRmut, levofloxacin 0 ng/mL
Protocol: as §2, §3

[6] = tested on: K. pneumoniae AcrB^V448E RamR^mut; experiment: Checkerboard assay levofloxacin x EPI, double mutant; parameters: checkerboard growth readout: unit not given here; details: for checkerboard growth readout: ATCC43816 AcrBV448E ramRmut, levofloxacin 0 ng/mL
Protocol: as §2, §3

## Clc1cc2cc(N3CCNCC3)ccc2nc1N1CCNCC1 [compound 5]
[1]
  susceptibility of the strain to antibiotic boosting by the EPI, in words: resistant
[2]
  EPI mediated antibiotic boosting, in words: maintained
[3]; EPI 2.3 µM
  checkerboard growth readout: 105
[3]; EPI 4.7 µM
  checkerboard growth readout: 106
[3]; EPI 9.4 µM
  checkerboard growth readout: 97
[3]; EPI 19 µM
  checkerboard growth readout: 85
[3]; EPI 38 µM
  checkerboard growth readout: 109
[3]; EPI 75 µM
  checkerboard growth readout: 121
[3]; EPI 150 µM
  checkerboard growth readout: 118
[3]; EPI 300 µM
  checkerboard growth readout: 87
[3]; K. pneumoniae WT (ATCC 43816), at 38 µM BDM91288
  maximal boosting of levofloxacin activity (decrease of MIC): 4 fold
[3]; K. pneumoniae WT, Fig. 2
  concentration needed for efficacy in vitro (boosting levofloxacin activity): 9 to 38 µM
[3]; Lev 0.00 ng/mL + EPI 2.34 uM
  percentage resazurin turnover: 110% and 85% and 105%
  Median REMA values (percentage resazurin turnover): 105%
[3]; Lev 0.00 ng/mL + EPI 4.69 uM
  percentage resazurin turnover: 106% and 98% and 117%
  Median REMA values (percentage resazurin turnover): 106%
[3]; Lev 0.00 ng/mL + EPI 9.38 uM
  percentage resazurin turnover: 97% and 89% and 110%
  Median REMA values (percentage resazurin turnover): 97%
[3]; Lev 0.00 ng/mL + EPI 18.75 uM
  percentage resazurin turnover: 66% and 85% and 116%
  Median REMA values (percentage resazurin turnover): 85%
[3]; Lev 0.00 ng/mL + EPI 37.50 uM
  percentage resazurin turnover: 112% and 98% and 109%
  Median REMA values (percentage resazurin turnover): 109%
[3]; Lev 0.00 ng/mL + EPI 75.00 uM
  percentage resazurin turnover: 89% and 138% and 121%
  Median REMA values (percentage resazurin turnover): 121%
[3]; Lev 0.00 ng/mL + EPI 150.00 uM
  percentage resazurin turnover: 94% and 132% and 118%
  Median REMA values (percentage resazurin turnover): 118%
[3]; Lev 0.00 ng/mL + EPI 300 uM
  percentage resazurin turnover: 107% and 80% and 87%
  Median REMA values (percentage resazurin turnover): 87%
[3]; parental K. pneumoniae strain, checkerboard
  concentration at which boosting of levofloxacin activity starts: around 9 µM
[4]; EPI 2.3 µM
  checkerboard growth readout: 105
[4]; EPI 4.7 µM
  checkerboard growth readout: 99
[4]; EPI 9.4 µM
  checkerboard growth readout: 105
[4]; EPI 19 µM
  checkerboard growth readout: 100
[4]; EPI 38 µM
  checkerboard growth readout: 109
[4]; EPI 75 µM
  checkerboard growth readout: 118
[4]; EPI 150 µM
  checkerboard growth readout: 109
[4]; EPI 300 µM
  checkerboard growth readout: 93
[4]; K. pneumoniae AcrB^V448E
  boosting of levofloxacin activity, in words: boosting was no longer observed
[4]; BDM91288 2.34 uM
  Median REMA values: 105%
  percentage resazurin turnover: 105% and 87% and 109%
[4]; BDM91288 4.69 uM
  Median REMA values: 99%
  percentage resazurin turnover: 99% and 89% and 111%
[4]; BDM91288 9.38 uM
  Median REMA values: 105%
  percentage resazurin turnover: 105% and 90% and 114%
[4]; BDM91288 18.75 uM
  Median REMA values: 100%
  percentage resazurin turnover: 100% and 93% and 138%
[4]; BDM91288 37.50 uM
  Median REMA values: 109%
  percentage resazurin turnover: 99% and 109% and 157%
[4]; BDM91288 75.00 uM
  Median REMA values: 118%
  percentage resazurin turnover: 124% and 117% and 118%
[4]; BDM91288 150.00 uM
  Median REMA values: 109%
  percentage resazurin turnover: 109% and 152% and 108%
[4]; BDM91288 300 uM
  Median REMA values: 93%
  percentage resazurin turnover: 114% and 93% and 89%
[5]; EPI 2.3 µM
  checkerboard growth readout: 90
[5]; EPI 4.7 µM
  checkerboard growth readout: 91
[5]; EPI 9.4 µM
  checkerboard growth readout: 93
[5]; EPI 19 µM
  checkerboard growth readout: 96
[5]; EPI 38 µM
  checkerboard growth readout: 124
[5]; EPI 75 µM
  checkerboard growth readout: 151
[5]; EPI 150 µM
  checkerboard growth readout: 151
[5]; EPI 300 µM
  checkerboard growth readout: 103
[5]; K. pneumoniae RamR^mut
  reversion of RamR-mediated levofloxacin resistance, in words: completely reverted
[6]; EPI 2.3 µM
  checkerboard growth readout: 87
[6]; EPI 4.7 µM
  checkerboard growth readout: 75
[6]; EPI 9.4 µM
  checkerboard growth readout: 86
[6]; EPI 19 µM
  checkerboard growth readout: 93
[6]; EPI 38 µM
  checkerboard growth readout: 98
[6]; EPI 75 µM
  checkerboard growth readout: 128
[6]; EPI 150 µM
  checkerboard growth readout: 153
[6]; EPI 300 µM
  checkerboard growth readout: 136
[6]; K. pneumoniae AcrB^V448E RamR^mut
  modulation of levofloxacin MIC, in words: No modulation
